Laboratory results reported in US20010031865A1, “Substituted 3-phenyluracils” (priority 1991, published 2001).

How the values were obtained:
[1] = test system: young, 4-leaved cotton plants of the Stoneville 825 variety; assay: Defoliation of young cotton plants (Use Example 1); format: in vivo; conditions: after 13 days
Description: The comparative agent used was
A 6,7-dihydrodipyrido[1,2-alpha:2′, 1′-c]pyridilium as the dibromide monohydrate salt (common name: Diquat®).
The comparative agent was used in the form-of the preformulated commercial product.
The test plants used were young, 4-leaved cotton plants (without cotyledons) of the Stoneville 825 variety, which were grown under greenhouse conditions (relative humidity from 50 to 70%; day/night temperature 27/20° C.).
The amount of water applied was equivalent to […]. After 13 days, the number of dropped leaves and the degree of defoliation in % were determined.

[2] = test system: undesirable broad-leaved plants and grasses; assay: Greenhouse herbicidal test, postemergence treatment; format: in vivo; conditions: for control of undesirable broad-leaved plants and grasses: postemergence use of 0.5 kg/ha, greenhouse
Description: The seeds of the test plants were sown separately according to species. For the purpose of the postemergence treatment, the test plants were grown in the test vessels themselves or were planted in the test vessels a few days beforehand. The active ingredients suspended or emulsified in water were not applied until a height of growth of from 3 to 15 cm, depending on the form of growth. The plants were kept at 10-25° C. or 20-35° C., according to species. The test periods extended over from 2 to 4 weeks. During this time, the plants were tended and their reaction to the individual treatments was evaluated. Rating was based on a scale from 0 to 100. 100 means no emergence of the plants or complete destruction of at least the above-ground parts and 0 means no damage on normal growth. The plants used in the greenhouse experiments consisted of the following species: [table]

[3] = converted application rate 0.10 kg/ha

SMILES | control of undesirable broad-leaved plants and grasses [2] | melting point | other results
c1cc[n+]2c(c1)-c1cccc[n+]1CC2 [A, 6,7-dihydrodipyrido[1,2-alpha:2′, 1′-c]pyridilium, reference compound] | – | – | Defoliation [1, 3]: 0%
Cn1c(C(F)(F)F)cc(=O)n(-c2ccc(Cl)c(C=O)c2)c1=O [compound 1.1, 3-(4-Chloro-3-formylphenyl)-2,4-dioxo-1-methyl-6-trifluoromethyl-1,2,3,4-tetrahydropyrimidine] | very readily controlled | – | –
CCO/N=C/c1cc(-n2c(=O)cc(C(F)(F)F)[nH]c2=O)ccc1Cl [compound 1.4, 3-[4-Chloro-3-(ethoximinomethyl)-phenyl]-2,4-dioxo-6-trifluoromethyl-1,2,3,4-tetrahydropyrimidine] | – | 221 to 223 °C | –
CCO/N=C/c1cc(-n2c(=O)cc(C(F)(F)F)n(C)c2=O)ccc1Cl [compound 1.5, 3-[4-Chloro-3-(ethoximinomethyl)-phenyl]-2,4-dioxo-1-methyl-6-trifluoromethyl-1,2,3,4-tetrahydropyrimidine] | very readily controlled | 132 to 134 °C | –
CCCCOC(=O)/C(Cl)=C/c1cc(-n2c(=O)cc(C(F)(F)F)n(C)c2=O)ccc1Cl [compound 1.15, 3-[4-Chloro-3-(2-chloro-2-butoxycarbonylethen-1-yl)-phenyl]-2,4-dioxo-1-methyl-6-trifluoromethyl-1,2,3,4-tetrahydropyrimidine] | very readily controlled | – | –
COC(=O)/C(C#N)=C/c1cc(-n2c(=O)cc(C(F)(F)F)n(C)c2=O)ccc1Cl [compound 1.22, 3-[4-Chloro-3-(2-cyano-2-methoxycarbonylethenyl)-phenyl]-2,4-dioxo-1-methyl-6-trifluoromethyl-1,2,3,4-tetrahydropyrimidine] | very readily controlled | – | –
CCOC(=O)N/N=C/c1cc(-n2c(=O)cc(C(F)(F)F)n(C)c2=O)ccc1Cl [compound 1.91, 3-(4-Chloro-3-ethoxycarbonylhydrazonomethylphenyl)-2,4-dioxo-1-methyl-6-trifluoromethyl-1,2,3,4-tetrahydropyrimidine] | – | 219 to 221 °C | –
Cn1c(C(F)(F)F)cc(=O)n(-c2ccc(Cl)c(C3OCCCO3)c2)c1=O [compound 2.1, 3-[4-Chloro-3-(1,3-dioxan-2-yl)-phenyl]-2,4-dioxo-1-methyl-6-trifluoromethyl-1,2,3,4-tetrahydropyrimidine] | very readily controlled | – | –
COC(=O)/C(Cl)=C/c1cc(-n2c(OC)nc(C(F)(F)F)cc2=O)ccc1Cl [compound 3.1, 3-[4-Chloro-3-(2-chloro-2-methoxycarbonylethenyl)-phenyl]-2-methoxy-4-oxo-6-trifluoromethyl-3,4-dihydro-pyrimidine] | – | – | Defoliation ([1]; converted application rate 0.05 kg/ha): 53%; Defoliation [1, 3]: 73%; control of undesirable broad-leaved plants ([2]; postemergence method, application rates of 0.06 and 0.03 kg/ha): very readily controlled
